# Test results as given in patent publication US6342483B1, “Method for detection and treatment of breast cancer” (Vanderbilt University, priority 1994, dated 2002).
# Columns and labels:
# [1] = system: human primary mammary epithelial cells; assay: Growth rate of primary mammary epithelial cells incubated with antisense or sense oligonucleotide; format: cell-based
# Text: (§1) Unmodified 18 base deoxyribonucleotide complementary to the BRCA1 translation initiation site were synthesized and added to cultures of primary mammary epithelial cells (Stampfer et al. 1980) or MCF-7 breast cancer cells (Soule and McGrath, 1980). FIG. 12 is graph showing growth rate of human primary mammary epithelial cells (A), MCF-7 cells (B), retinal pigmented epithelial cells (C), cultured as described below. Points and bars represent the mean and the 95% confidence interval of triplicate counts of cells incubated with a single bolus of the indicated concentration of antisense or control sense deoxyribonucleotide.
# Antisense oligonucleotide studies. Unmodified deoxyribonucleotide were analyzed by gel electrophoresis and UV shadowing and shown to be homogenous and of appropriate size. These oligonucleotide were purified by multiple lyophilization and solubilized in buffered media as described (Holt et al. 1988). Sequence of the unmodified antiBRCA1 oligonucleotide 5′AAG AGC AGA TAA ATC CAT 3′(SEQ ID NO: 52) and the complementary sense oligonucleotide 5′ATG GAT TTA TCT GCT CTT 3′ (SEQ ID NO:53) correspond to the presumed translation initiation site at bases […] of the GenBank sequence. The antisense oligonucleotide sequence was searched against GenBank and no significant homologies were identified to genes except BRCA1. Oligonucleotides were used according to our published methods (Holt et al. 1988). Primary mammary epithelial cells were cultured in serum-free medium supplemented with epidermal growth factor, insulin, hydrocortisone, ethanolamine, phosphorylethanolamine, and bovine pituitary extract. MCF-7 cells were cultured in Minimum Essential Medium Eagle (Modified) with Earle's salts and 2g/L sodium bicarbonate m supplemented with 2 mM L-glutamine, GMS-A (Gibco Cat. #680-1300AD), nonessential amino acids, and 2.5% fetal calf serum. Retinal pigmented perithelial cells were cultured in DMEM and 10% calf serum.
# [2] = system: MCF-7 cells; assay: Nuclear labelling with tritiated thymidine in synchronized MCF-7 cells; format: cell-based, human; details: tamoxifen 48 hours, then 1 uM estradiol
# Text: (§2) In order to critically evaluate the function of BRCA1 gene inhibition on growth stimulation and cell cycle progression it was necessary to identify a gene whose expression is cell cycle regulated in human mammary cells. […] Because ribonucleotide reductase constitutes the rate limiting step in DNA synthesis, we reasoned that it might be cell cycle regulated in a synchronous growth model such as MCF-7 cells which can be growth arrested by tamoxifen and then restimulated by estrogen (Aitken et al. 1985, Arteaga et al. 1989). MCF-7 cells were growth arrested by tamoxifen for 48 hours and then stimulated at time zero (0) with 1 uM estradiol (+E) or control vehicle (−E).
# [3] = system: ribonucleotide reductase M2 gene; assay: Northern blot and nuclear run on of ribonucleotide reductase M2 in synchronized MCF-7 cells; format: cell-based, human; details: tamoxifen 48 hours, then 1 uM estradiol
# Text: as §2
# FIG. 13A is a Northern blot of mRNA from synchronized MCF-7 cells. At the indicated time in hours, total cellular RNA was isolated and Northern blotting performed using the 1.6 Kb Eco RI fragment from our cloned human ribonucleotide reductase cDNA described above. Two mRNA species of 1.6 and 3.4 Kb are observed in these studies.
# Con represents cells which were grown for 48 hours but not treated with tamoxifen.
# [4] = system: ribonucleotide reductase M2 mRNA; assay: Nuclease protection assay of ribonucleotide reductase M2 mRNA after antisense treatment, MCF-7 cells; format: cell-based, human; details: 40 uM, cultured 4 days
# Experimental: (§3) Antisense inhibition is a useful strategy for studying gene expression which is dependent on expression of the antisense target gene (Robinson-Benion and Holt, in press, 1995), e.g. genes whose expression is directly or indirectly dependent on BRCA1 levels. […] A nuclease protection assay of mRNA derived from primary mammary epithelial cells (lanes 1-4, 9-10) or MCF-7 cells Oanes 5-8, 11-12) cultured for 4 days with antisense or control oligonucleotide was performed under the following conditions: no oligonucleotide (lanes 1 and 5); 40 uM antiBRCA1 (lanes 2,6,10,12); 4 uM antiBRCA1 (lanes 3 and 7); 40 uM sense control (lanes 4,8,9,11). Probes for BRCA1 and GAPD are as described for FIG. 10, and the ribonucleotide reductase M2 probe (RR) detects the 200 bp probe is described above.
# (§4) Nuclease Protection Assays. PCR primers were derived from BRCA1 sequence in GenBank (Accession number U14680); forward 5′CAA TTG GGC AGA TGT GT 3′ (SEQ ID NO:50) and reverse 5′CTGGGGGATCTGGGGTATCA 3′ (SEQ ID NO:51) which amplify a 113 bp region from exon 24, corresponding to bases 5587 to 5699 of the human BRCA1. This region was selected because this exon has not been reported to be differentially spliced unlike more 5′ exons. […]
# (§5) Antisense oligonucleotide studies. Unmodified deoxyribonucleotide were analyzed by gel electrophoresis and UV shadowing and shown to be homogenous and of appropriate size. […]
# [5] = system: BRCA1 mRNA; assay: Nuclease protection assay of BRCA1 mRNA after antisense treatment; format: cell-based, human; details: compared with cells treated with sense control oligonucleotide; 40 uM, 4 days; lanes 9 and 10 FIG. 14 (primary mammary epithelial cells)
# Experimental: as §3, §4, §5
# [6] = system: ribonucleotide reductase M2 mRNA; assay: Nuclease protection assay of ribonucleotide reductase M2 mRNA after antisense treatment, primary mammary epithelial cells; format: cell-based, human; details: 40 uM, cultured 4 days
# Experimental: as §3, §4, §5
# [7] = system: MCF-7 breast cancer cells; assay: Growth rate of MCF-7 cells incubated with antisense or sense oligonucleotide; format: cell-based, human; details: 40 uM oligonucleotide, single bolus, FIG. 12B
# Text: as §1
# (§6) Antisense oligonucleotide studies. Unmodified deoxyribonucleotide were analyzed by gel electrophoresis and UV shadowing and shown to be homogenous and of appropriate size. These oligonucleotide were purified by multiple lyophilization and solubilized in buffered media as described (Holt et al. 1988). Sequence of the unmodified antiBRCA1 oligonucleotide 5′AAG AGC AGA TAA ATC CAT 3′(SEQ ID NO: 52) and the complementary sense oligonucleotide 5′ATG GAT TTA TCT GCT CTT 3′ (SEQ ID NO:53) correspond to the presumed translation initiation site at bases 12-137 of the GenBank sequence. The antisense oligonucleotide sequence was searched against GenBank and no significant homologies were identified to genes except BRCA1. […]
# [8] = system: human retinal pigmented epithelial cells; assay: Growth rate of retinal pigmented epithelial cells incubated with antisense or sense oligonucleotide; format: cell-based; details: 40 uM oligonucleotide, single bolus; FIG. 12C
# Text: as §1, §6
compound,measurement,setting,value
"sense oligomer: Complementary sense control oligonucleotide with the same GC content, 5′ATG GAT TTA TCT GCT CTT 3′ (SEQ ID NO:53) (sense ATGGATTTATCTGCTCTT; further chemistry not given here) [reference compound]",growth activation by anti-BRCA1 oligomer,"[1]; 10 fold excess of sense oligomer added to the anti-BRCA1 oligomer, cell line not specified",reversed the growth activation
same,proliferation rate,"[1]; control oligomer with the same GC content, cell line not specified",did not increase the proliferation rate
CC/C(=C(\c1ccccc1)c1ccc(OCCN(C)C)cc1)c1ccccc1 [tamoxifen],DNA synthesis,[2],Inhibition of DNA synthesis
same,transcription of the ribonucleotide reductase M2 gene,[3],inhibited
"C[C@]12CC[C@@H]3c4ccc(O)cc4CC[C@H]3[C@@H]1CC[C@@H]2O [estrogen, estradiol]",DNA synthesis,[2],induction of synthesis
same,transcription of the ribonucleotide reductase M2 gene,[3],induced
"anti-BRCA1 oligonucleotide: Unmodified 18 base deoxyribonucleotide complementary to the BRCA1 translation initiation site, 5′AAG AGC AGA TAA ATC CAT 3′ (SEQ ID NO: 52) (antisense AAGAGCAGATAAATCCAT; unmodified DNA)",ribonucleotide reductase mRNA levels,[4],highest
same,inhibition of BRCA1 mRNA levels,[5],70-90%
same,ribonucleotide reductase mRNA levels,[6],highest
same,growth of normal mammary cells,"[1]; 40 uM oligonucleotide, single bolus, FIG. 12A",accelerated growth
same,morphologic appearance of the cell lines,[1]; addition of antisense oligonucleotide,not noticeably changed
same,proliferative rate of the cell lines,"[1]; addition of antisense oligonucleotide, dose not stated",faster
same,cell growth rate,"[1]; intermediate dose, cell line not given",less pronounced but significant increase
same,growth of malignant mammary cells,[7],accelerated growth
same,growth of human retinal pigmented epithelial cells,[8],did not affect the growth
